# Source: patent US20260078103A1, “ISOQUINOLONES AS PI3K INHIBITORS” (OnKure, Inc., priority 2022, published 2026)
# Where two headings read alike, the source gives them in different places.
# What was measured:
# Assay type in all cases: cell-based
# [1] = tested on: phosphorylation of AKT (pAKT) in SKBR3 cells express WT PI3Ka; assay: In vitro cell pAKT (Ser473) HTRF, SKBR3 cells; conditions: cellular pAKT
# Summary of the method: (§1)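 T47D cells (RPMI, 10% FBS, 0.2 units/mL insulin) or SKBR3 cells (McCoy's 5a, 10% FBS) were seeded onto 10-point compound dilutions and incubated 6 h at 37 °C. After lysis, pAKT was detected overnight by HTRF (Eu cryptate/d2). IC50 was fitted from % inhibition relative to 0.1% DMSO and 10 uM alpelisib controls.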
# [2] = tested on: phosphorylation of AKT (pAKT) in T47D cells expressing mutant PI3Ka (H1047R); assay: In vitro cell pAKT (Ser473) HTRF, T47D cells; conditions: cellular pAKT, T47D cells, mutant PI3Ka (H1047R), 6 hours, read-out: Avg T-47D IC50
# Summary of the method: as §1
# [3] = tested on: SKBR3 cells express WT PI3Ka; assay: In vitro cell proliferation, SKBR3 cells (CellTiter-Glo); conditions: inhibition of proliferation
# Summary of the method: (§2)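 1,500 cells/well seeded onto pre-stamped 10-pt dilution plates; T47D in RPMI + 10% FBS + insulin 0.2 units/mL, SKBR3 in McCoys 5a + 10% FBS. 72 h, 37 °C, 5% CO2. CTG readout. 0% = 0.1% DMSO, 100% = 10 uM Alpelisib; sigmoidal fit gives EC50.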
# [4] = tested on: T47D cells expressing mutant PI3Ka (H1047R); assay: In vitro cell proliferation, T47D cells (CellTiter-Glo); conditions: inhibition of proliferation, read-out: Avg T-47D EC50
# Summary of the method: as §2
Compound,"IC50 ([1]; Homo sapiens, SK-BR-3, 6 h) [nM]","IC50 ([2]; Homo sapiens, T47D, 6 h) [nM]","EC50 ([3]; Homo sapiens, SK-BR-3, 72 h) [nM]","EC50 ([4]; Homo sapiens, T47D, 72 h) [nM]",IC50 ([1]; 6 hours) [nM],IC50 [2] [nM],EC50 ([3]; 72 hours) [nM],EC50 ([4]; 72 hours) [nM]
C[C@@H](Nc1ccccc1C(=O)O)c1cc(F)cc2c(=O)n(C)c(-c3cnc(OC4CC4)s3)cc12 [Example 345],> 15000,1 to 500,> 15000,1 to 500,,,,
COC(C)(C)c1ncc(-c2cc3c([C@@H](C)Nc4cccc(F)c4C(=O)O)cc(C)cc3c(=O)n2C)cc1F [Example 346],> 15000,1 to 500,> 15000,1 to 500,,,,
CCOc1ncc(-c2cc3c([C@@H](C)Nc4cccc(F)c4C(=O)O)cc(C)cc3c(=O)n2C)s1 [Example 347],> 15000,1 to 500,> 15000,1 to 500,,,,
Cc1cc([C@@H](C)Nc2ccccc2C(=O)O)c2cc(-c3cnc(CC(F)(F)F)nc3)n(C)c(=O)c2c1 [Example 348],> 15000,1 to 500,> 15000,1 to 500,,,,
CCOc1ncc(-c2cc3c([C@@H](C)Nc4ccccc4C(=O)O)cc(F)cc3c(=O)n2C)s1 [Example 349],> 15000,1 to 500,> 15000,1 to 500,,,,
CCON1CCN(c2cc3c([C@@H](C)Nc4cccc(F)c4C(=O)O)cc(C)cc3c(=O)n2C)CC1 [Example 350],> 15000,1 to 500,> 15000,1 to 500,,,,
Cc1cc([C@@H](C)Nc2cccc(F)c2C(=O)O)c2cc(-c3ccc(OC4CC4)nc3)n(C)c(=O)c2c1 [Example 351],> 15000,1 to 500,> 15000,1 to 500,,,,
Cc1cc([C@@H](C)Nc2cccc(F)c2C(=O)O)c2cc(N3CCN(c4ccc(C)nc4)CC3)n(C)c(=O)c2c1 [Example 352],2000 to 15000,1 to 500,2000 to 15000,1 to 500,,,,
Cc1ccc(N2CCN(c3cc4c([C@@H](C)Nc5ccccc5C(=O)O)cc(F)cc4c(=O)n3C)CC2)cn1 [Example 353],500 to 2000,1 to 500,2000 to 15000,1 to 500,,,,
Cc1cc(C(C)Nc2cccc(C#N)c2C(=O)O)c2cc(N3CCN(CC(F)(F)F)CC3)n(C)c(=O)c2c1 (centres unmarked) [Example 354],,,,,> 15000,2000 to 15000,> 15000,2000 to 15000
Cc1ccc(N2CCN(c3cc4c([C@@H](C)Nc5cccc(F)c5C(=O)O)cc(F)cc4c(=O)n3C)CC2)cn1 [Example 362],2000 to 15000,1 to 500,2000 to 15000,1 to 500,,,,
CCOc1ncc(-c2cc3c([C@@H](C)Nc4cccc(F)c4C(=O)O)cc(F)cc3c(=O)n2C)s1 [Example 363],> 15000,1 to 500,> 15000,1 to 500,,,,
Cc1cc([C@@H](C)Nc2ccccc2C(=O)O)c2cc(N3CCN(c4cnc(C)s4)CC3)n(C)c(=O)c2c1 [Example 364],500 to 2000,1 to 500,2000 to 15000,1 to 500,,,,
Cc1cc([C@@H](C)Nc2ccccc2C(=O)O)c2cc(-c3cc(F)c4nn(C)cc4c3)n(C)c(=O)c2c1 [Example 365],,,,,> 15000,1 to 500,> 15000,1 to 500
Cc1cc([C@@H](C)Nc2ccccc2C(=O)O)c2cc(-c3cc(F)c4c(cnn4C)c3)n(C)c(=O)c2c1 [Example 366],2000 to 15000,1 to 500,2000 to 15000,1 to 500,,,,
Cc1cc([C@@H](C)Nc2ccccc2C(=O)O)c2cc(N3CCN(c4cnc(C)c(F)c4)CC3)n(C)c(=O)c2c1 [Example 367],,,,,2000 to 15000,1 to 500,2000 to 15000,1 to 500
Cc1cc([C@@H](C)Nc2ccccc2C(=O)O)c2cc(-c3cnc(CF)nc3)n(C)c(=O)c2c1 [Example 369],> 15000,1 to 500,> 15000,1 to 500,,,,
Cc1cc([C@@H](C)Nc2cccc(F)c2C(=O)O)c2cc(-c3cnc(C(F)(F)F)nc3)n(C)c(=O)c2c1 [Example 371],,,,,> 15000,500 to 2000,> 15000,500 to 2000
C[C@@H](Nc1cccc(F)c1C(=O)O)c1cc(F)cc2c(=O)n(C)c(-c3cnc(C(F)(F)F)nc3)cc12 [Example 372],,,,,> 15000,2000 to 15000,> 15000,2000 to 15000
C#Cc1ccc(N[C@H](C)c2cc(C)cc3c(=O)n(C)c(-c4cnc(C(F)(F)F)nc4)cc23)c(C(=O)O)n1 [Example 375],,,,,> 15000,1 to 500,> 15000,1 to 500

# Now from value to compound:
"IC50 ([1]; Homo sapiens, SK-BR-3, 6 h) [nM]","IC50 ([2]; Homo sapiens, T47D, 6 h) [nM]","EC50 ([3]; Homo sapiens, SK-BR-3, 72 h) [nM]","EC50 ([4]; Homo sapiens, T47D, 72 h) [nM]",IC50 ([1]; 6 hours) [nM],IC50 [2] [nM],EC50 ([3]; 72 hours) [nM],EC50 ([4]; 72 hours) [nM],Compound
2000 to 15000,1 to 500,> 15000,1 to 500,,,,,Cc1cc([C@@H](C)Nc2ccc(Cl)nc2C(=O)O)c2cc(-c3cnc(C(F)(F)F)nc3)n(C)c(=O)c2c1 [Example 376]
,,,,> 15000,2000 to 15000,> 15000,2000 to 15000,Cc1cc([C@@H](C)Nc2cnc(Cl)nc2C(=O)O)c2cc(N3CCN(CC(F)(F)F)CC3)n(C)c(=O)c2c1 [Example 377]
> 15000,1 to 500,> 15000,1 to 500,,,,,C[C@@H](Nc1ccccc1C(=O)O)c1cc(F)cc2c(=O)n(C)c(-c3cnc(-c4ccc(F)cn4)c(F)c3)cc12 [Example 378]
> 15000,1 to 500,> 15000,1 to 500,,,,,C[C@@H](Nc1cccc(F)c1C(=O)O)c1cc(F)cc2c(=O)n(C)c(-c3ccc(OC4CC4)nc3)cc12 [Example 379]
,,,,2000 to 15000,1 to 500,2000 to 15000,1 to 500,Cc1cc([C@@H](C)Nc2ccccc2C(=O)O)c2cc(N3CCN(c4ccc(CF)nc4)CC3)n(C)c(=O)c2c1 [Example 381]
> 15000,1 to 500,> 15000,1 to 500,,,,,Cc1cc([C@@H](C)Nc2ccccc2C(=O)O)c2cc(-c3cnc(C(F)(F)F)cn3)n(C)c(=O)c2c1 [Example 382]
> 15000,1 to 500,> 15000,1 to 500,,,,,Cc1cc([C@@H](C)Nc2ccccc2C(=O)O)c2cc(-c3ncc(C(F)(F)F)cn3)n(C)c(=O)c2c1 [Example 383]
,,,,> 15000,500 to 2000,> 15000,1 to 500,Cc1cc([C@@H](C)Nc2ccc(F)nc2C(=O)O)c2cc(-c3cnc(C(F)(F)F)nc3)n(C)c(=O)c2c1 [Example 387]
,,,,> 15000,1 to 500,> 15000,1 to 500,CC(Nc1cccc(F)c1C(=O)O)c1cc(F)cc2c(=O)n(C)c(-c3cnc(OC4CC(F)C4)c(F)c3)cc12 (centres unmarked) [Example 388]
,,,,> 15000,1 to 500,> 15000,1 to 500,C[C@@H](Nc1cccc(F)c1C(=O)O)c1cc(F)cc2c(=O)n(C)c(-c3cnc(OC4CC4)c(F)c3)cc12 [Example 390]
> 15000,1 to 500,> 15000,1 to 500,,,,,Cc1cc([C@@H](C)Nc2ccccc2C(=O)O)c2cc(-c3cnc(CF)cn3)n(C)c(=O)c2c1 [Example 393]
,,,,> 15000,1 to 500,> 15000,1 to 500,Cc1cc([C@@H](C)Nc2ccccc2C(=O)O)c2cc(-c3cnc(OC4CC4)cn3)n(C)c(=O)c2c1 [Example 394]
